Assay results from PMC4541002, “Quantification of Niacin and Its Metabolite Nicotinuric Acid in Human Plasma by LC-MS/MS: Application to a Clinical Trial of a Fixed Dose Combination Tablet of Niacin Extended-Release/Simvastatin (500 mg/10 mg) in Healthy Chinese Volunteers” (International Journal of Analytical Chemistry, 2015).
Where two headings read alike, the source gives them in different places.

Experiments:
[1] = Pharmacokinetics of NA and NUA in plasma after single oral doses of Niacin extended-release/Simvastatin tablets in healthy Chinese volunteers; type: in vivo; details: for CLz/F: human plasma; for AUC(0-t) / AUC(0-inf) / Tmax / half-life / Cmax / k el / MRT last / Vd/F: both sexes, human, po; for k el: n = 12, read-out: K e (converted); for MRT last: n = 12, read-out: MRT0–t; for Vd/F: n = 12, read-out: V z/F
Description: Extraction of NA and NUA was carried out by protein precipitation. First, 50 μL of the IS working solution (1000 ng/mL 5-FU) and 50 μL of water were added to a 100 μL aliquot of human plasma. The sample mixture was then deproteinized with 250 μL of acetonitrile, and the precipitate was removed by centrifugation at 15000 rpm for 10 min. The supernatant was transferred to another tube and evaporated under a gentle stream of nitrogen at 40°C until it is dry. The residue was reconstituted in 150 μL mobile phase and vortex-mixed for 30 sec. An aliquot of 40 μL of the solution was injected into the LC-MS/MS system for analysis.
Before conducting the study all subjects provided written informed consent to participate. The study was designed as randomized, open-label, crossover, and single dose periods with a 7-day washout between each treatment. A total of 12 healthy Chinese volunteers (6 males and 6 females) aged 20 to 35 years with a body mass index between 19 and 24 kg/m^2 were recruited. Subjects were randomized into three groups (2 males and 2 females for each treatment). They were orally dosed with Niacin extended-release/Simvastatin 1, 2, and 3 tablets once daily, separately. The venous blood samples were collected at time intervals (0, 0.33, 0.66, 1.0, 1.5, 2.0, 2.5, 3.0, 3.5, 4.0, 5.0, 6.0, 8.0, 12, and 24 h) in separate vacutainers during the treatment. All blood samples were centrifuged at 3000 ×g for 10 min and the plasma was separated and kept frozen at −20°C until analysis.
The pharmacokinetic parameters were calculated with data analysis system (DAS) program (version 2.0, Mathematical Pharmacology Professional Committee, Shanghai, China). The maximum plasma concentration (C max) and the corresponding time (T max) were obtained from observed data. The terminal elimination rate constant (K e) was estimated with least-squares regression of values in the terminal log-linear region of plasma concentration-time curves, and the terminal elimination half-life (t 1/2) was calculated to be 0.693/K e. The area under the curve from time zero to the last sampling time (AUC0−t) was determined using the linear trapezoidal rule.

[2] = for Found C / Found R.E.: n = 3; for stability in human plasma: variety of storage and process conditions (Tables 2 and 3)
Description: The following stability tests were evaluated: (1) stability of the stock solutions of the analytes; (2) freeze and thaw stability of the analytes in the plasma from −20°C to room temperature for three cycles; (3) short-term stability of the analytes in plasma at room temperature before extraction for 3 h and the ready-to-inject samples (after extraction, in the mobile phase) to the autosampler rack for 4 h; and (4) long-term stability of the analytes in matrix stored at −20°C for two months. All stability tests samples at three concentration levels (10, 60, and 600 ng/mL) were analyzed in triplicate and the deviations were determined in relation to freshly prepared samples.

[3] = Stability of stock solutions of NA and NUA; type: physicochemical
Description: Two separate stock solutions of the analytes were prepared at 1 mg/mL in methanol-water (50 : 50, v/v) and stored at −20°C. A series of standard working solutions for NA and NUA were prepared by diluting stock solution with methanol-water (50 : 50, v/v). The 5-FU solution was brought to a final concentration of 1000 ng/mL in acetonitrile from 1 mg/mL in acetonitrile. All working solutions were stored at 4°C and brought to room temperature before use. Calibration standards and quality control samples were prepared by spiking 50 μL of the working solutions and 50 μL of IS into 100 μL of drug-free human plasma. Matrix-matched NA and NUA calibration standards were prepared in plasma at concentrations of 5, 10, 20, 60, 200, 600, and 800 ng/mL, respectively. Similarly, NA and NUA quality control (QC) samples were prepared separately in plasma to give concentrations of 10, 60, and 600 ng/mL.

[4] = 1 tablet (500 mg/10 mg), mean ± S.D., n = 12
[5] = 2 tablets (1000 mg/20 mg), mean ± S.D., n = 12
[6] = 3 tablets (1500 mg/30 mg), mean ± S.D., n = 12
[7] = plasma, 1 tablet (500 mg/10 mg), mean ± S.D., n = 12
[8] = plasma, 1 tablet (500 mg/10 mg), mean ± S.D.
[9] = plasma, 2 tablets (1000 mg/20 mg), mean ± S.D., n = 12
[10] = plasma, 2 tablets (1000 mg/20 mg), mean ± S.D.
[11] = plasma, 3 tablets (1500 mg/30 mg), mean ± S.D., n = 12
[12] = plasma, 3 tablets (1500 mg/30 mg), mean ± S.D.
[13] = extracted plasma sample in mobile phase, autosampler for 4 h (24°C), added 10.0 ng/mL
[14] = extracted plasma sample in mobile phase, autosampler for 4 h (24°C), added 60.0 ng/mL
[15] = extracted plasma sample in mobile phase, autosampler for 4 h (24°C), added 600.0 ng/mL
[16] = human plasma, long-term (2 months at −20°C), added 10.0 ng/mL
[17] = human plasma, long-term (2 months at −20°C), added 60.0 ng/mL
[18] = human plasma, long-term (2 months at −20°C), added 600.0 ng/mL
[19] = human plasma, short-term (3 h at 24°C), added 10.0 ng/mL
[20] = human plasma, short-term (3 h at 24°C), added 60.0 ng/mL
[21] = human plasma, short-term (3 h at 24°C), added 600.0 ng/mL
[22] = human plasma, three freeze/thaw cycles, added 10.0 ng/mL
[23] = human plasma, three freeze/thaw cycles, added 60.0 ng/mL
[24] = human plasma, three freeze/thaw cycles, added 600.0 ng/mL
[25] = seven days at −20°C versus before
[26] = six h at room temperature versus before
[27] = in vivo, 1 tablet (500 mg/10 mg), mean ± S.D., n = 12
[28] = in vivo, 1 tablet (500 mg/10 mg), mean ± S.D.
[29] = in vivo, 2 tablets (1000 mg/20 mg), mean ± S.D., n = 12
[30] = in vivo, 2 tablets (1000 mg/20 mg), mean ± S.D.
[31] = in vivo, 3 tablets (1500 mg/30 mg), mean ± S.D., n = 12
[32] = in vivo, 3 tablets (1500 mg/30 mg), mean ± S.D.

## O=C(O)c1cccnc1 [NA, 3-pyridine-carboxylic acid]
[1]; [4]
  CLz/F: 1271 ± 850.0 L/h
[1]; [5]
  CLz/F: 744.0 ± 356.0 L/h
[1]; [6]
  CLz/F: 526.0 ± 421.0 L/h
[1]; plasma, 1 tablet
  AUC(0-t): 349 ± 192 ng·h/mL
[1]; [7]
  AUC(0-inf): 518 ± 226 ng·h/mL
  AUC(0-t): 385 ± 192 ng·h/mL
  Tmax: 2.94 ± 2.63 h
  half-life: 8.8 ± 8.49 h
[1]; plasma, 1 tablet (500 mg/10 mg), mean ± S.D., n = 12, read-out: C max
  Cmax: 160 ± 125 ng/mL
[1]; [8]
  k el: 5.28e-05 s⁻¹
  MRT last: 5.37 ± 1.96 h
  Vd/F: 13700 ± 11600 L
[1]; plasma, 1 tablet, read-out: mean maximum plasma concentration (C max)
  Cmax: 160 ± 125 ng/mL
[1]; plasma, 2 tablets
  AUC(0-t): 1540 ± 957 ng·h/mL
[1]; [9]
  AUC(0-inf): 1720 ± 923 ng·h/mL
  AUC(0-t): 1540 ± 957 ng·h/mL
  Tmax: 1.82 ± 1.69 h
  half-life: 7.33 ± 8.68 h
[1]; plasma, 2 tablets (1000 mg/20 mg), mean ± S.D., n = 12, read-out: C max
  Cmax: 904 ± 487 ng/mL
[1]; [10]
  k el: 0.000119 s⁻¹
  MRT last: 4.4 ± 2.21 h
  Vd/F: 7650 ± 9320 L
[1]; plasma, 2 tablets, read-out: C max
  Cmax: 904 ± 487 ng/mL
[1]; plasma, 3 tablets
  AUC(0-t): 6020 ± 6580 ng·h/mL
[1]; [11]
  AUC(0-inf): 6100 ± 6550 ng·h/mL
  AUC(0-t): 6020 ± 6580 ng·h/mL
  Tmax: 2.42 ± 1.64 h
  half-life: 5.4 ± 4.57 h
[1]; plasma, 3 tablets (1500 mg/30 mg), mean ± S.D., n = 12, read-out: C max
  Cmax: 2480 ± 1430 ng/mL
[1]; [12]
  k el: 7.5e-05 s⁻¹
  MRT last: 3.65 ± 1.33 h
  Vd/F: 5200 ± 6650 L
[1]; plasma, 3 tablets, read-out: C max
  Cmax: 2480 ± 1430 ng/mL
[2]; [13]
  Found C: 9.6 ng/mL
  Found R.E.: −3.7%
[2]; [14]
  Found C: 62.7 ng/mL
  Found R.E.: 4.5%
[2]; [15]
  Found C: 578.3 ng/mL
  Found R.E.: −3.6%
[2]; [16]
  Found C: 9.6 ng/mL
  Found R.E.: −4.1%
[2]; [17]
  Found C: 53.7 ng/mL
  Found R.E.: −10.6%
[2]; [18]
  Found C: 595.3 ng/mL
  Found R.E.: −0.8%
[2]; [19]
  Found C: 9.1 ng/mL
  Found R.E.: −8.9%
[2]; [20]
  Found C: 58.8 ng/mL
  Found R.E.: −2.1%
[2]; [21]
  Found C: 636.3 ng/mL
  Found R.E.: 6.0%
[2]; [22]
  Found C: 9.5 ng/mL
  Found R.E.: −4.6%
[2]; [23]
  Found C: 58.0 ng/mL
  Found R.E.: −3.28%
[2]; [24]
  Found C: 546.3 ng/mL
  Found R.E.: −9.0%
[2]
  stability in human plasma: did not reveal any significant degradation
[3]; [25]
  R.E.% of response, stock solution stability: −5.8%
[3]; [26]
  R.E.% of response, stock solution stability: −1.1%

## O=C(O)CNC(=O)c1cccnc1 [NUA, nicotinuric acid]
[1]; [4]
  CLz/F: 287.8 ± 128.2 L/h
[1]; [5]
  CLz/F: 224.8 ± 91.90 L/h
[1]; [6]
  CLz/F: 189.3 ± 94.20 L/h
[1]; in vivo, 1 tablet
  AUC(0-t): 2150 ± 1360 ng·h/mL
[1]; [27]
  AUC(0-inf): 2180 ± 1370 ng·h/mL
  AUC(0-t): 2150 ± 1360 ng·h/mL
  Tmax: 2.06 ± 1.6 h
  half-life: 1.7 ± 0.801 h
[1]; in vivo, 1 tablet (500 mg/10 mg), mean ± S.D., n = 12, read-out: C max
  Cmax: 836 ± 399 ng/mL
[1]; [28]
  k el: 0.000147 s⁻¹
  MRT last: 2.91 ± 0.74 h
  Vd/F: 649 ± 338 L
[1]; in vivo, 1 tablet, read-out: mean maximum plasma concentration (C max)
  Cmax: 836 ± 399 ng/mL
[1]; in vivo, 2 tablets
  AUC(0-t): 5400 ± 3220 ng·h/mL
[1]; [29]
  AUC(0-inf): 5480 ± 3250 ng·h/mL
  AUC(0-t): 5400 ± 3220 ng·h/mL
  Tmax: 3.03 ± 2.19 h
  half-life: 2.55 ± 1.26 h
[1]; in vivo, 2 tablets (1000 mg/20 mg), mean ± S.D., n = 12, read-out: C max
  Cmax: 1630 ± 636 ng/mL
[1]; [30]
  k el: 9.17e-05 s⁻¹
  MRT last: 3.6 ± 1.32 h
  Vd/F: 821 ± 523 L
[1]; in vivo, 2 tablets, read-out: C max
  Cmax: 1630 ± 636 ng/mL
[1]; in vivo, 3 tablets
  AUC(0-t): 10200 ± 7080 ng·h/mL
[1]; [31]
  AUC(0-inf): 10200 ± 7090 ng·h/mL
  AUC(0-t): 10200 ± 7080 ng·h/mL
  Tmax: 2.33 ± 1.05 h
  half-life: 2.72 ± 1.83 h
[1]; in vivo, 3 tablets (1500 mg/30 mg), mean ± S.D., n = 12, read-out: C max
  Cmax: 2790 ± 1040 ng/mL
[1]; [32]
  k el: 9.17e-05 s⁻¹
  MRT last: 3.79 ± 1.11 h
  Vd/F: 696 ± 458 L
[1]; in vivo, 3 tablets, read-out: C max
  Cmax: 2790 ± 1040 ng/mL
[2]; [13]
  Found C: 10.7 ng/mL
  Found R.E.: 7.3%
[2]; [14]
  Found C: 67.0 ng/mL
  Found R.E.: 11.7%
[2]; [15]
  Found C: 598.3 ng/mL
  Found R.E.: −0.3%
[2]; [16]
  Found C: 10.6 ng/mL
  Found R.E.: 6.4%
[2]; [17]
  Found C: 59.1 ng/mL
  Found R.E.: −1.5%
[2]; [18]
  Found C: 579.3 ng/mL
  Found R.E.: −3.4%
[2]; [19]
  Found C: 11.0 ng/mL
  Found R.E.: 9.7%
[2]; [20]
  Found C: 63.6 ng/mL
  Found R.E.: 5.9%
[2]; [21]
  Found C: 628.7 ng/mL
  Found R.E.: 4.8%
[2]; [22]
  Found C: 10.8 ng/mL
  Found R.E.: 8.3%
[2]; [23]
  Found C: 63.3 ng/mL
  Found R.E.: 5.6%
[2]; [24]
  Found C: 618.3 ng/mL
  Found R.E.: 3.1%
[2]
  stability in human plasma: did not reveal any significant degradation
[3]; [25]
  R.E.% of response, stock solution stability: −1.6%
[3]; [26]
  R.E.% of response, stock solution stability: 0.8%
